Test results from patent publication US11986471B2, “Compounds and methods of use” (Tango Therapeutics, Inc., priority 2018, dated 2024).

Key:
[1] = tested on: HAP1 MTAP-intact; experiment: SDMA in-cell western assay, HAP1 MTAP-intact cell line; format: cell-based; settings: Homo sapiens
Outline: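 Cells from two matched HAP1 lines, MTAP-null and MTAP-expressing at endogenous levels, are treated with compound. SDMA is then quantified by in-cell western and an IC50 is calculated for each line.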

[2] = target: T1, PRMT5 (Homo sapiens, UniProt O14744); experiment: PRMT5 IC50 assay in the presence of MTA as cofactor; format: biochemical; settings: for IC50: PRMT5, MTA as cofactor
T1 construct: purchased Viva (custom protein)
Outline: (§1)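 Each compound is tested on PRMT5 in the presence of SAM, of MTA, and without any cofactor. Ki values are then back-calculated using fixed factors of 1.5 (SAM) and 13.5 (MTA), and the two Ki values are compared as a ratio.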

[3] = target: T1, PRMT5; experiment: PRMT5 IC50 assay in the presence of SAM as cofactor; format: biochemical
Outline: as §1

[4] = tested on: HAP1 MTAP-deleted; experiment: SDMA in-cell western assay, HAP1 MTAP-deleted cell line; format: cell-based; settings: for IC50: Homo sapiens, HAP1 MTAP-deleted cell line; for MTAP Intact/Deleted Ratio: IC50 ratio HAP1 MTAP-intact / HAP1 MTAP-deleted
Outline: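 MTAP-null HAP1 cells, the deleted member of an isogenic pair with endogenously MTAP-expressing HAP1, are treated with compound. SDMA is then quantified by in-cell western and an IC50 is calculated.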

[5] = target: T1, PRMT5; experiment: PRMT5 IC50 assay with no cofactor; format: biochemical
Outline: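 IC50 against PRMT5 determined with SAM as cofactor, with no cofactor, and with MTA as cofactor. Ki derived as IC50/1.5 for the SAM assay and IC50/13.5 for the MTA assay; SAM Ki to MTA Ki ratio also reported.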

[6] = ratio between the Ki in the presence of SAM and the Ki in the presence of MTA
[7] = ratio between Ki in the presence of SAM and Ki in the presence of MTA

T1 sequence (O14744 whole entry): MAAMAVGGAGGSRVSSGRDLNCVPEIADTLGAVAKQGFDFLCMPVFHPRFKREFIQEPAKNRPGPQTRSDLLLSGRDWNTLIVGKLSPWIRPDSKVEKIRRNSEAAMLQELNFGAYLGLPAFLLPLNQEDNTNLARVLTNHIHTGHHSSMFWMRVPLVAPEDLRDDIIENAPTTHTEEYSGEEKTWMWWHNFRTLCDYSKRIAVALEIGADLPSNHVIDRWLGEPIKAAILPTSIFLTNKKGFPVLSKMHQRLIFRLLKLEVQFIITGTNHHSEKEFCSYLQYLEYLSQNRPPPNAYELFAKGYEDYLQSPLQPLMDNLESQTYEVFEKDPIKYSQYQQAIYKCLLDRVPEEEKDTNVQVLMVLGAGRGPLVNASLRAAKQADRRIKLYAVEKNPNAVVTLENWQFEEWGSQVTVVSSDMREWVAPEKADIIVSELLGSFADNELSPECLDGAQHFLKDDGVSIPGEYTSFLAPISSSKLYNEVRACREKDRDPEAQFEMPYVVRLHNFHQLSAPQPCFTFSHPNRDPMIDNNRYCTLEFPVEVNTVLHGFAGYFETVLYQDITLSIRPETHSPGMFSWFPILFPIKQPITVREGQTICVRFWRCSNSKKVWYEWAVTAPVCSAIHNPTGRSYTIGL
T1 sequence (Q9BQA1 whole entry partner): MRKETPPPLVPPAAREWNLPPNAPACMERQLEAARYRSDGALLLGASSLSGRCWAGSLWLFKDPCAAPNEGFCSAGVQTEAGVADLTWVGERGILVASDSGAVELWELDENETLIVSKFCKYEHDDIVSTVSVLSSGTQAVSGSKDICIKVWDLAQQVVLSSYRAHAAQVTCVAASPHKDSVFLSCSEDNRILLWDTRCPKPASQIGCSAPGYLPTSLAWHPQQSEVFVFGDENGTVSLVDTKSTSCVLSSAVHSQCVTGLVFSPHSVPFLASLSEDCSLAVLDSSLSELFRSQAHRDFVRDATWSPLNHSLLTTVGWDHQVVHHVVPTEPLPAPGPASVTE

SMILES | IC50 [1] | IC50 [2] | SAM/MTA Ratio [2, 6] | IC50 [3] | IC50 [4] | MTAP Intact/Deleted Ratio [4] | IC50 [5] | SAM/MTA Ratio [2, 7] | IC50 ([5]; read-out: No Co-factor IC50)
Cc1c(OCc2cnco2)ccc2c1CCN(C[C@@H](O)CNC(=O)c1ccnc(NC3CN(C(=O)CC(C)C)C3)c1)C2 [Compound 522, (S)—N-(2-hydroxy-3-(5-methyl-6-(oxazol-5-ylmethoxy)-3N-dihydroisoquinolin-2(1H)-yl)propyl)-2-((1-(3-methylbutanoyl)azetidin-3-yl)amino)isonicotinamide] | ≥ 10000 nM | 50 to 500 nM | A (a Ki ratio greater than or equal to 10 fold between the Ki in the presence of SAM and the Ki in the presence of MTA) | 50 to 500 nM | ≥ 10000 nM | C* (an IC50 ratio of less than 3 fold between the IC50 in the HAP1 MTAP-intact cell line and the HAP1 MTAP-deleted cell line) | ≥ 5000 nM | – | –
Cc1c(OCc2cnco2)ccc2c1CCN(C[C@@H](O)CNC(=O)c1ccnc(NC3CC4(CC4)C3)c1)C2 [Compound 472] | ≥ 10000 nM | 50 to 500 nM | A (a Ki ratio greater than or equal to 10 fold between the Ki in the presence of SAM and the Ki in the presence of MTA) | 50 to 500 nM | 1000 to 10000 nM | B* (an IC50 ratio greater than or equal to 3 fold but lower than 10 fold between the IC50 in the HAP1 MTAP-intact cell line and the HAP1 MTAP-deleted cell line) | 500 to 5000 nM | – | –
O=C(NC[C@H](O)CN1CCc2c(ccc(OCc3cnco3)c2I)C1)c1ccnc(NC2CCC2)c1 [Compound 258, 2-(cyclobutylamino)-N-[(2S)-2-hydroxy-3-[5-iodo-6-(oxazol-5-ylmethoxy)-3,4-dihydro-1H-isoquinolin-2-yl]propyl]pyridine-4-carboxamide] | ≥ 10000 nM | 500 to 5000 nM | – | 500 to 5000 nM | ≥ 10000 nM | C* (an IC50 ratio of less than 3 fold between the IC50 in the HAP1 MTAP-intact cell line and the HAP1 MTAP-deleted cell line) | – | A (a Ki ratio greater than or equal to 10 fold between the Ki in the presence of SAM and the Ki in the presence of MTA) | ≥ 5000 nM
CC(=O)N1CC(Nc2cc(C(=O)NC[C@H](O)CN3CCc4cc(OCc5cnco5)ccc4C3)ccn2)C1 [Compound 451] | ≥ 10000 nM | 50 to 500 nM | A (a Ki ratio greater than or equal to 10 fold between the Ki in the presence of SAM and the Ki in the presence of MTA) | 50 to 500 nM | ≥ 10000 nM | C* (an IC50 ratio of less than 3 fold between the IC50 in the HAP1 MTAP-intact cell line and the HAP1 MTAP-deleted cell line) | 500 to 5000 nM | – | –
Cc1c(OCc2cnco2)ccc2c1CCN(C[C@@H](O)CNC(=O)c1ccnc(NC3CC4(CCC4)C3)c1)C2 [Compound 473, (S)—N-(2-hydroxy-3-(5-methyl-6-(oxazol-5-ylmethoxy)-3,4-dihydroisoquinolin-2(1H)-yl)propyl)-2-(spiro[3.3]heptan-2-ylamino)isonicotinamide] | ≥ 10000 nM | 50 to 500 nM | A (a Ki ratio greater than or equal to 10 fold between the Ki in the presence of SAM and the Ki in the presence of MTA) | 50 to 500 nM | 1000 to 10000 nM | C* (an IC50 ratio of less than 3 fold between the IC50 in the HAP1 MTAP-intact cell line and the HAP1 MTAP-deleted cell line) | 500 to 5000 nM | – | –
O=C(NC[C@H](O)CN1CCc2c(ccc(OCc3cnco3)c2Br)C1)c1cc(NC2CCCC2)ncn1 [Compound 337] | ≥ 10000 nM | 500 to 5000 nM | – | 500 to 5000 nM | ≥ 10000 nM | C* (an IC50 ratio of less than 3 fold between the IC50 in the HAP1 MTAP-intact cell line and the HAP1 MTAP-deleted cell line) | – | A (a Ki ratio greater than or equal to 10 fold between the Ki in the presence of SAM and the Ki in the presence of MTA) | ≥ 5000 nM
O=C(NC[C@H](O)CN1CCc2cc(OCc3cnco3)ccc2C1)c1cncc(NC2CCOC2)c1 (stereo partly drawn) [Compound 355, N—((S)-2-hydroxy-3-(6-(oxazol-5-ylmethoxy)-3,4-dihydroisoquinolin-2(1H)-yl)propyl)-5-((tetrahydrofuran-3-yl)amino)nicotinamide] | ≥ 10000 nM | 50 to 500 nM | – | 500 to 5000 nM | ≥ 10000 nM | C* (an IC50 ratio of less than 3 fold between the IC50 in the HAP1 MTAP-intact cell line and the HAP1 MTAP-deleted cell line) | – | A (a Ki ratio greater than or equal to 10 fold between the Ki in the presence of SAM and the Ki in the presence of MTA) | ≥ 5000 nM
O=C(NC[C@H](O)CN1CCc2cc(OCc3cnco3)cc(F)c2C1)c1ccnc(NC2CCC2)c1 [Compound 362, 2-(cyclobutylamino)-N-[(2S)-3-[8-fluoro-6-(oxazol-5-ylmethoxy)-3,4-dihydro-1H-isoquinolin-2-yl]-2-hydroxy-propyl]pyridine-4-carboxamide] | < 1000 nM | 50 to 500 nM | – | 500 to 5000 nM | 1000 to 10000 nM | C* (an IC50 ratio of less than 3 fold between the IC50 in the HAP1 MTAP-intact cell line and the HAP1 MTAP-deleted cell line) | – | A (a Ki ratio greater than or equal to 10 fold between the Ki in the presence of SAM and the Ki in the presence of MTA) | ≥ 5000 nM
Cc1ncoc1COc1ccc2c(c1C)CCN(C[C@@H](O)CNC(=O)c1cccc(NC3CCC3)c1)C2 [Compound 488, 3-(cyclobutylamino)-N-[(2S)-2-hydroxy-3-{5-methyl-6-[(4-methyl-1,3-oxazol-5-yl)methoxy]-1,2,3,4-tetrahydroisoquinolin-2-yl}propyl]benzamide] | ≥ 10000 nM | 50 to 500 nM | A (a Ki ratio greater than or equal to 10 fold between the Ki in the presence of SAM and the Ki in the presence of MTA) | 500 to 5000 nM | 1000 to 10000 nM | C* (an IC50 ratio of less than 3 fold between the IC50 in the HAP1 MTAP-intact cell line and the HAP1 MTAP-deleted cell line) | ≥ 5000 nM | – | –
Cc1c(OCc2cnco2)ccc2c1CCN(C[C@@H](O)CNC(=O)c1ccnc(NC3CCN(C(=O)C4CCC4)CC3)c1)C2 [Compound 494, (S)-2-((1-(cyclobutanecarbonyl)piperidin-4-yl)amino)-N-(2-hydroxy-3-(5-methyl-6-(oxazol-5-ylmethoxy)-3N-dihydroisoquinolin-2(1H)-yl)propyl)isonicotinamide] | ≥ 10000 nM | 50 to 500 nM | A (a Ki ratio greater than or equal to 10 fold between the Ki in the presence of SAM and the Ki in the presence of MTA) | 50 to 500 nM | 1000 to 10000 nM | B* (an IC50 ratio greater than or equal to 3 fold but lower than 10 fold between the IC50 in the HAP1 MTAP-intact cell line and the HAP1 MTAP-deleted cell line) | 500 to 5000 nM | – | –
COc1ccc(C(=O)N2CCc3cc(C(=O)NC[C@H](O)CN4CCc5cc(OCc6ocnc6C)c(F)cc5C4)ccc3C2)cc1 [Compound 577, N-[(2S)-3-[7-fluoro-6-[(4-methyloxazol-5-yl)methoxy]-3N-dihydro-1H-isoquinolin-2-yl]-2-hydroxy-propyl]-2-(4-methoxybenzoyl)-3N-dihydro-1H-isoquinoline-6-carboxamide] | 1000 to 10000 nM | 50 to 500 nM | A (a Ki ratio greater than or equal to 10 fold between the Ki in the presence of SAM and the Ki in the presence of MTA) | 50 to 500 nM | 1000 to 10000 nM | B* (an IC50 ratio greater than or equal to 3 fold but lower than 10 fold between the IC50 in the HAP1 MTAP-intact cell line and the HAP1 MTAP-deleted cell line) | 500 to 5000 nM | – | –
CC(=O)N1CCN(c2cc(C(=O)NC[C@H](O)CN3CCc4cc(OCc5cnco5)ccc4C3)cc(NC3CCC3)n2)CC1 [Compound 497, (S)-2-(4-acetylpiperazin-1-yl)-6-(cyclobutylamino)-N-(2-hydroxy-3-(6-(oxazol-5-ylmethoxy)-3N-dihydroisoquinolin-2(1H)-yl)propyl)isonicotinamide] | 1000 to 10000 nM | 50 to 500 nM | A (a Ki ratio greater than or equal to 10 fold between the Ki in the presence of SAM and the Ki in the presence of MTA) | 50 to 500 nM | < 1000 nM | C* (an IC50 ratio of less than 3 fold between the IC50 in the HAP1 MTAP-intact cell line and the HAP1 MTAP-deleted cell line) | 500 to 5000 nM | – | –
Cc1ncoc1COc1ccc2c(c1)CCN(C[C@@H](O)CNC(=O)c1cc(NC3CCC3)ncc1F)C2 [Compound 614, (S)-2-(cyclobutylamino)-5-fluoro-N-(2-hydroxy-3-(6-((4-methyloxazol-5-yl)methoxy)-3,4-dihydroisoquinolin-2(1H)-yl)propyl)isonicotinamide] | 1000 to 10000 nM | 50 to 500 nM | A (a Ki ratio greater than or equal to 10 fold between the Ki in the presence of SAM and the Ki in the presence of MTA) | 50 to 500 nM | < 1000 nM | C* (an IC50 ratio of less than 3 fold between the IC50 in the HAP1 MTAP-intact cell line and the HAP1 MTAP-deleted cell line) | 500 to 5000 nM | – | –
